From patent US10544134B2, “4-substituted coumarin derivatives and preparation methods and uses thereof” (SI CHUAN UNIVERSITY, priority 2015, dated 2020)

system: colon carcinoma cell HCT116; assay: Tumor cell proliferation inhibitory activity test in vitro (MTT); format: cell-based, human; conditions: Homo sapiens, HCT-116, 72 hours, read-out: IC50 of compounds for tumor cells, Activity, HCT116
Source text: (§1) Human non-small cell lung cancer cell line NCI-H460, human small cell lung cancer cell line NCI-H446, human hepatocellular carcinoma cell strain HepG2, human colon carcinoma cell strain HCT116, human prostate cancer PC-3, human melanoma A375, colon carcinoma cell HCT-8, breast cancer cell MCF-7, ovarian cancer cell A2780s, drug-resistant ovarian cancer cell A2780/T, drug-resistant colon cancer cell HCT-8/T and doxorubicin-resistant breast cancer cell MCF-7/ADR are obtained from American Type Culture Collection (ATCC) and are cultured and preserved by the cell bank of State Key Laboratory of Biotherapy of Sichuan University. Above tumor cells are routinely cultured in DMEM culture medium containing 10% fetal bovine serum, 100 U·mL-1 penicillin and 100 mg·L−1 streptomycin, and in an incubator at 37° C. and with saturated humidity and 5% CO2 concentration.
(§2) Fill diluted cell suspension in the 96-well plate with 1000-10000 cells per well and incubate it in CO2 incubator overnight.
(§3) Replace with new medium containing various concentrations of compounds to be tested for the test group and replace with fresh medium with equal volume for the control group, each group is arranged with 5 parallel wells and incubated in an incubator at 37° C. and with 5% CO2 concentration.
(§4) Discard the supernatant after 72 hours, add 200 μL freshly prepared serum-free medium containing 0.2 mg/mL MTT into each well, continue to incubate at 37° C. for 1-4 hours, then stop incubation, carefully remove the culture supernatant in the wells and add 200 uL DMSO (dimethyl sulfoxide), oscillate with a miniature ultrasonic oscillator for 15-20 minutes to make the crystal fully dissolved and mixed. Determine OD values using a microplate reader at 570 nm with a reference wavelength of 450 nm.
(§5) Draw curves based on the growth inhibition rate for tumor cells of the same sample with different concentrations to get dose-response curve, so as to calculate IC50. Repeat each test for 3 times, measure IC50 (μM) or nanomolor concentration (nM) of compounds in different tumor cells.

SMILES	IC50 [µM]
COc1cccc(-c2ccc(-c3cc(=O)oc4cc(OC)ccc34)s2)c1 [COUM-33, 4-(5-(3-methoxybenzene)thiophene-2-yl)-7-methoxyl-coumarin]	> 5
CCOC(=O)c1cccc(-c2ccc(-c3cc(=O)oc4cc(OC)ccc34)o2)c1 [COUM-27, 4-(5-(3-ethoxycarbonylbenzene)furan-2-yl)-7-methoxyl-coumarin]	> 5
COc1ccc2c(-c3ccc(-c4ccc5c(c4)OCO5)s3)cc(=O)oc2c1 [COUM-11, 4-(5-(3,4-(methylenedioxy)benzene)thiophene-2-yl)-7-methoxyl-coumarin]	> 5
O=c1cc(-c2ccc(-c3cccc(Cl)c3)s2)c2ccccc2o1 [COUM-8, 4-(5-(3-chlorobenzene)thiophene-2-yl)-coumarin]	> 5
O=c1cc(-c2ccc(-c3ccc(Cl)cc3)o2)c2ccccc2o1 [COUM-21, 4-(5-(4-chlorobenzene)furan-2-yl)-coumarin]	> 5
COc1ccc(-c2ccc(-c3cc(=O)oc4ccccc34)o2)cc1 [COUM-15, 4-(5-(4-methoxyphenyl)furan-2-yl)-coumarin]	> 5

system: non-small cell lung cancer cell line NCI-H460; assay: as above; format: cell-based, human; conditions: Homo sapiens, NCI-H460, 72 hours, read-out: IC50 of compounds for tumor cells, Activity, H460
Source text: as §1, §2, §3, §4, §5

SMILES	IC50 [µM]
COc1cccc(-c2ccc(-c3cc(=O)oc4cc(OC)ccc34)s2)c1 [COUM-33, 4-(5-(3-methoxybenzene)thiophene-2-yl)-7-methoxyl-coumarin]	> 5
CCOC(=O)c1cccc(-c2ccc(-c3cc(=O)oc4cc(OC)ccc34)o2)c1 [COUM-27, 4-(5-(3-ethoxycarbonylbenzene)furan-2-yl)-7-methoxyl-coumarin]	> 5
COc1ccc2c(-c3ccc(-c4ccc5c(c4)OCO5)s3)cc(=O)oc2c1 [COUM-11, 4-(5-(3,4-(methylenedioxy)benzene)thiophene-2-yl)-7-methoxyl-coumarin]	> 5
O=c1cc(-c2ccc(-c3cccc(Cl)c3)s2)c2ccccc2o1 [COUM-8, 4-(5-(3-chlorobenzene)thiophene-2-yl)-coumarin]	> 5
O=c1cc(-c2ccc(-c3ccc(Cl)cc3)o2)c2ccccc2o1 [COUM-21, 4-(5-(4-chlorobenzene)furan-2-yl)-coumarin]	> 5
COc1ccc(-c2ccc(-c3cc(=O)oc4ccccc34)o2)cc1 [COUM-15, 4-(5-(4-methoxyphenyl)furan-2-yl)-coumarin]	> 5

system: prostate cancer PC-3; assay: as above; format: cell-based, human; conditions: Homo sapiens, 72 hours, read-out: IC50 of compounds for tumor cells, Activity, PC-3
Source text: as §1, §2, §3, §4, §5

SMILES	IC50 [µM]
COc1cccc(-c2ccc(-c3cc(=O)oc4cc(OC)ccc34)s2)c1 [COUM-33, 4-(5-(3-methoxybenzene)thiophene-2-yl)-7-methoxyl-coumarin]	> 5
CCOC(=O)c1cccc(-c2ccc(-c3cc(=O)oc4cc(OC)ccc34)o2)c1 [COUM-27, 4-(5-(3-ethoxycarbonylbenzene)furan-2-yl)-7-methoxyl-coumarin]	> 5
COc1ccc2c(-c3ccc(-c4ccc5c(c4)OCO5)s3)cc(=O)oc2c1 [COUM-11, 4-(5-(3,4-(methylenedioxy)benzene)thiophene-2-yl)-7-methoxyl-coumarin]	> 5
O=c1cc(-c2ccc(-c3cccc(Cl)c3)s2)c2ccccc2o1 [COUM-8, 4-(5-(3-chlorobenzene)thiophene-2-yl)-coumarin]	> 5
O=c1cc(-c2ccc(-c3ccc(Cl)cc3)o2)c2ccccc2o1 [COUM-21, 4-(5-(4-chlorobenzene)furan-2-yl)-coumarin]	> 5
COc1ccc(-c2ccc(-c3cc(=O)oc4ccccc34)o2)cc1 [COUM-15, 4-(5-(4-methoxyphenyl)furan-2-yl)-coumarin]	> 5

system: melanoma A375; assay: as above; format: cell-based, human; conditions: Homo sapiens, A-375, 72 hours, read-out: IC50 of compounds for tumor cells, Activity, A375
Source text: as §1, §2, §3, §4, §5

SMILES	IC50 [µM]
COc1cccc(-c2ccc(-c3cc(=O)oc4cc(OC)ccc34)s2)c1 [COUM-33, 4-(5-(3-methoxybenzene)thiophene-2-yl)-7-methoxyl-coumarin]	> 5
CCOC(=O)c1cccc(-c2ccc(-c3cc(=O)oc4cc(OC)ccc34)o2)c1 [COUM-27, 4-(5-(3-ethoxycarbonylbenzene)furan-2-yl)-7-methoxyl-coumarin]	> 5
COc1ccc2c(-c3ccc(-c4ccc5c(c4)OCO5)s3)cc(=O)oc2c1 [COUM-11, 4-(5-(3,4-(methylenedioxy)benzene)thiophene-2-yl)-7-methoxyl-coumarin]	> 5
O=c1cc(-c2ccc(-c3cccc(Cl)c3)s2)c2ccccc2o1 [COUM-8, 4-(5-(3-chlorobenzene)thiophene-2-yl)-coumarin]	> 5
O=c1cc(-c2ccc(-c3ccc(Cl)cc3)o2)c2ccccc2o1 [COUM-21, 4-(5-(4-chlorobenzene)furan-2-yl)-coumarin]	> 5
COc1ccc(-c2ccc(-c3cc(=O)oc4ccccc34)o2)cc1 [COUM-15, 4-(5-(4-methoxyphenyl)furan-2-yl)-coumarin]	> 5

system: hepatocellular carcinoma cell HEPG2; assay: as above; format: cell-based, human; conditions: Homo sapiens, HepG2, 72 hours, read-out: IC50 of compounds for tumor cells, Activity, HEPG2
Source text: as §1, §2, §3, §4, §5

SMILES	IC50 [µM]
COc1cccc(-c2ccc(-c3cc(=O)oc4cc(OC)ccc34)s2)c1 [COUM-33, 4-(5-(3-methoxybenzene)thiophene-2-yl)-7-methoxyl-coumarin]	> 5
CCOC(=O)c1cccc(-c2ccc(-c3cc(=O)oc4cc(OC)ccc34)o2)c1 [COUM-27, 4-(5-(3-ethoxycarbonylbenzene)furan-2-yl)-7-methoxyl-coumarin]	> 5
COc1ccc2c(-c3ccc(-c4ccc5c(c4)OCO5)s3)cc(=O)oc2c1 [COUM-11, 4-(5-(3,4-(methylenedioxy)benzene)thiophene-2-yl)-7-methoxyl-coumarin]	> 5
O=c1cc(-c2ccc(-c3cccc(Cl)c3)s2)c2ccccc2o1 [COUM-8, 4-(5-(3-chlorobenzene)thiophene-2-yl)-coumarin]	> 5
O=c1cc(-c2ccc(-c3ccc(Cl)cc3)o2)c2ccccc2o1 [COUM-21, 4-(5-(4-chlorobenzene)furan-2-yl)-coumarin]	> 5
COc1ccc(-c2ccc(-c3cc(=O)oc4ccccc34)o2)cc1 [COUM-15, 4-(5-(4-methoxyphenyl)furan-2-yl)-coumarin]	> 5

system: breast cancer cell MCF-7; assay: as above; format: cell-based; conditions: Homo sapiens, MCF7, 72 hours, read-out: IC50 of compounds for tumor cells, Activity, MCF-7
Source text: as §1, §2, §3, §4, §5

SMILES	IC50 [µM]
COc1cccc(-c2ccc(-c3cc(=O)oc4cc(OC)ccc34)s2)c1 [COUM-33, 4-(5-(3-methoxybenzene)thiophene-2-yl)-7-methoxyl-coumarin]	> 5
CCOC(=O)c1cccc(-c2ccc(-c3cc(=O)oc4cc(OC)ccc34)o2)c1 [COUM-27, 4-(5-(3-ethoxycarbonylbenzene)furan-2-yl)-7-methoxyl-coumarin]	> 5
COc1ccc2c(-c3ccc(-c4ccc5c(c4)OCO5)s3)cc(=O)oc2c1 [COUM-11, 4-(5-(3,4-(methylenedioxy)benzene)thiophene-2-yl)-7-methoxyl-coumarin]	> 5
O=c1cc(-c2ccc(-c3cccc(Cl)c3)s2)c2ccccc2o1 [COUM-8, 4-(5-(3-chlorobenzene)thiophene-2-yl)-coumarin]	> 5
O=c1cc(-c2ccc(-c3ccc(Cl)cc3)o2)c2ccccc2o1 [COUM-21, 4-(5-(4-chlorobenzene)furan-2-yl)-coumarin]	> 5
COc1ccc(-c2ccc(-c3cc(=O)oc4ccccc34)o2)cc1 [COUM-15, 4-(5-(4-methoxyphenyl)furan-2-yl)-coumarin]	> 5
